Patent publication US20170121344A1 (Siga Technologies, Inc., priority 2009, published 2017)
Read-outs that look alike come from different tables or passages of the source.

Key:
DENV-4 = assay: Viral yield assay against DENV-4 in Vero cells; type: cell-based; settings: Dengue virus
Procedure: (§1) Compounds that were active in the primary screen were tested for activity in viral yield assays. […] Vero cells in 12-well plates were infected with dengue-2 virus at a multiplicity of infection (MOI) of 0.1, treated with compound (or DMSO as a control), incubated at 37° C., harvested 48 hours post infection and titered on Vero cells as described above. The EC50 was calculated through ExcelFit. Activities against other serotypes of dengue virus were determined in a similar way.

DENV-3 = assay: Viral yield assay against DENV-3 in Vero cells; type: cell-based; settings: Dengue virus
Procedure: as §1

[1] = tested on: Dengue-2 (Strain New Guinea C); assay: Viral yield assay against Dengue-2 in Vero cells; type: cell-based, Dengue virus
Procedure, shortened: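 Progeny virus from compound-treated Vero monolayers infected at an MOI of 0.1 is collected after 48 h at 37° C and titered on Vero cells. DMSO serves as control.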

DENV-1 = assay: Viral yield assay against DENV-1 in Vero cells; type: cell-based; settings: Dengue virus
Procedure: as §1

[2] = Dengue virus, DENV2, viral yield assay, Vero cells, MOI 0.1, 48 hours post infection, read-out: Activity (EC50 in μM) DENV-2
[3] = Dengue virus, DENV2, Vero cells, read-out: Activity (EC50 in μM) DENV-2
[4] = Dengue virus, DENV2, Vero, 48 h, read-out: Activity (EC50 in μM) DENV-2
[5] = Dengue virus, Vero cells, MOI 0.1, harvested 48 hours post infection, read-out: Activity (EC50 class) against Dengue-2 Virus in Vero cells
[6] = Dengue virus, Vero, 48 h, read-out: Activity (EC50 class) against Dengue-2 Virus in Vero cells

| Compound | EC50 (DENV-4; DENV4, viral yield assay) [µM] | EC50 (DENV-3; DENV3, viral yield assay) [µM] | EC50 [1, 2] [µM] | EC50 (DENV-1; DENV1, viral yield assay) [µM] | also measured |
| --- | --- | --- | --- | --- | --- |
| Nc1c(C(=O)Nc2cccc(F)c2)sc2nc(-c3cccs3)ccc12 [Compound 464, 3-amino-N-(3-fluorophenyl)-6-(2-thienyl)thieno[2,3-b]pyridine-2-carboxamide] | < 5 | < 5 | < 5 | < 5 | – |
| NCCNc1c(C(=O)Nc2cccc(C(F)(F)F)c2)sc2nc(-c3cccs3)ccc12 [Compound 304, 3-(2-aminoethylamino)-6-(2-thienyl)-N-[3-(trifluoromethyl)phenyl]thieno[2,3-b]pyridine-2-carboxamide] | – | – | – | – | EC50 (DENV-4; DENV4): < 5 µM; EC50 (DENV-3; DENV3): < 5 µM; EC50 [1, 3]: < 5 µM; EC50 (DENV-1; DENV1): < 5 µM |
| CNCC(=O)Nc1c(C(=O)Nc2cccc(C(F)(F)F)c2)sc2nc(-c3cccs3)ccc12 [Compound 307, 3-[[2-(methylamino)acetyl]amino]-6-(2-thienyl)-N-[3-(trifluoromethyl)phenyl]thieno[2,3-b]pyridine-2-carboxamide] | – | – | – | – | EC50 (DENV-4; DENV4): < 5 µM; EC50 (DENV-3; DENV3): < 5 µM; EC50 [1, 3]: < 5 µM; EC50 (DENV-1; DENV1): < 5 µM |
| Cc1ccc2c(N)c(C(=O)Nc3nnc(-c4ccccc4)s3)sc2n1 [Compound 284, 3-amino-6-methyl-N-(5-phenyl-1,3,4-thiadiazol-2-yl)thieno[2,3-b]pyridine-2-carboxamide] | > 25 | 5 to 25 | < 5 | < 5 | – |
| COc1ccc(-c2ccc3c(N)c(C(=O)Nc4ccc(C)cc4C)sc3n2)cc1OC [Compound 530, 3-amino-6-(3,4-dimethoxyphenyl)-N-(2,4-dimethylphenyl)thieno[2,3-b]pyridine-2-carboxamide] | < 5 | < 5 | < 5 | < 5 | – |
| O=C(O)CNc1c(C(=O)Nc2nnc(-c3ccccc3)s2)sc2nc3c(cc12)CCCCC3 [Compound 293, 2-((2-((5-phenyl-1,3,4-thiadiazol-2-yl)carbamoyl)-6,7,8,9-tetrahydro-5H-cyclohepta[b]thieno[3,2-e]pyridin-3-yl)amino)acetic acid] | – | – | – | – | EC50 (DENV-4; DENV4): < 5 µM; EC50 (DENV-3; DENV3): < 5 µM; EC50 [1, 3]: < 5 µM; EC50 (DENV-1; DENV1): < 5 µM |
| Nc1c(C(=O)Nc2cccc(Cl)c2)sc2nc(-c3ccc(Cl)cc3)ccc12 [Compound 344, 3-amino-N-(3-chlorophenyl)-6-(4-chloro-phenyl)thieno[2,3-b]pyridine-2-carboxamide] | < 5 | < 5 | < 5 | < 5 | – |
| COc1cc(NC(=O)c2sc3nc(-c4cccs4)ccc3c2N)cc(OC)c1OC [Compound 473, 3-amino-6-(2-thienyl)-N-(3,4,5-trimethoxyphenyl)thieno[2,3-b]pyridine-2-carboxamide] | < 5 | < 5 | – | < 5 | EC50 [1, 4]: < 5 µM |
| CCCCNc1c(C(=O)Nc2nnc(-c3ccccc3)s2)sc2nc3c(cc12)CCCCC3 [Compound 289, 3-(butylamino)-N-(5-phenyl-1,3,4-thiadiazol-2-yl)-6,7,8,9-tetrahydro-5H-cyclohepta[b]thieno[3,2-e]pyridine-2-carboxamide] | – | – | – | – | EC50 (DENV-4; DENV4): < 5 µM; EC50 (DENV-3; DENV3): < 5 µM; EC50 [1, 3]: < 5 µM; EC50 (DENV-1; DENV1): < 5 µM |
| Cc1ccc(-c2ccc3c(N)c(C(=O)Nc4ccc(Br)cc4)sc3n2)cc1 [Compound 485, 3-amino-N-(4-bromophenyl)-6-(p-tolyl) thieno[2,3-b]pyridine-2-carboxamide] | < 5 | < 5 | < 5 | < 5 | – |
| Nc1c(C(=O)Nc2ccc(Cl)c(Cl)c2)sc2nc(-c3ccc(Cl)cc3)ccc12 [Compound 342, 3-amino-6-(4-chlorophenyl)-N-(3,4-dichloro-phenyl)thieno [2,3-b]pyridine-2-carboxamide] | < 5 | < 5 | < 5 | < 5 | – |
| Nc1c(C(=O)Nc2ccc(Cl)cc2)sc2nc(-c3ccc(Cl)cc3)ccc12 [Compound 333, 3-amino-N,6-bis(4-chlorophenyl)thieno [2,3-b]pyridine-2-carboxamide] | < 5 | < 5 | < 5 | < 5 | – |
| COc1ccc(-c2ccc3c(N)c(C(=O)Nc4ccc(OC(F)(F)F)cc4)sc3n2)cc1OC [Compound 584, 3-amino-6-(3,4-dimethoxyphenyl)-N-[4-(trifluoromethoxy)phenyl]thieno[2,3-b] pyridine-2-carboxamide] | < 5 | – | < 5 | – | – |
| Nc1c(C(=O)Nc2ccc(F)cc2)sc2nc(-c3ccc4c(c3)OCO4)ccc12 [Compound 603, 3-amino-6-(1,3-benzodioxol-5-yl)-N-(4-fluorophenyl)thieno[2,3-b]pyridine-2-carboxamide] | < 5 | – | – | – | EC50 [1, 4]: < 5 µM |
| COc1cccc(-c2ccc3c(N)c(C(=O)Nc4ccc(C)c(Br)c4)sc3n2)c1 [Compound 559, 3-amino-N-(3-bromo-4-methyl-phenyl)-6-(3-methoxyphenyl)thieno[2,3-b] pyridine-2-carboxamide] | < 5 | < 5 | < 5 | – | – |
| Nc1c(C(=O)Nc2ccc(F)cc2Cl)sc2nc(-c3ccc(F)cc3)ccc12 [Compound 618, 3-amino-N-(2-chloro-4-fluoro-phenyl)-6-(4-fluorophenyl)thieno[2,3-b]pyridine-2-carboxamide] | – | – | < 5 | < 5 | – |
| O=C(O)CNc1c(C(=O)Nc2nnc(-c3ccccc3)s2)sc2nc(Cl)ccc12 [Compound 299, 2-[[6-chloro-2-[(5-phenyl-1,3,4-thiadiazol-2-yl)carbamoyl]thieno[2,3-b]pyridin-3-yl]amino]acetic acid] | – | – | – | – | EC50 (DENV-4; DENV4): 5 to 25 µM; EC50 [1, 3]: 5 to 25 µM; EC50 (DENV-1; DENV1): 5 to 25 µM |
| CCN1CCc2nc3sc(C(=O)Nc4ccc(C(F)(F)F)cc4)c(N)c3cc2C1 [Compound 21, 3-Amino-6-ethyl-5,6,7,8-tetrahydro-thieno[2,3-b][1,6]naphthyridine-2-carboxylic acid (4-trifluoromethyl-phenyl)-amide] | – | – | – | – | EC50 [1, 5]: < 5 µM |
| Cc1ccccc1NC(=O)c1sc2nc(-c3ccc(F)cc3)ccc2c1N [Compound 610, 3-amino-6-(4-fluorophenyl)-N-(o-tolyl) thieno[2,3-b]pyridine-2-carboxamide] | – | – | < 5 | – | – |
| Cc1c(Cl)cccc1NC(=O)c1sc2nc(-c3ccc4c(c3)OCO4)ccc2c1N [Compound 586, 3-amino-6-(1,3-benzodioxol-5-yl)-N-(3-chloro-2-methyl-phenyl)thieno[2,3-b] pyridine-2-carboxamide] | – | – | < 5 | – | – |
| COCc1cc(C)nc2sc(C(=O)Nc3ccc(C(=O)OC)cc3)c(N)c12 [Compound 239, 4-[(3-Amino-4-methoxymethyl-6-methyl-thieno[2,3-b]pyridine-2-carbonyl)-amino]-benzoic acid methyl ester] | – | – | – | – | EC50 [1, 6]: > 25 µM |
| Nc1c(C(=O)Nc2ccc([N+](=O)[O-])cc2)sc2nc3c(c(-c4ccco4)c12)CCCC3 [Compound 213, 3-Amino-4-furan-2-yl-5,6,7,8-tetrahydro-thieno[2,3-b]quinoline-2-carboxylic acid (4-nitro-phenyl)-amide] | – | – | – | – | EC50 [1, 5]: > 25 µM |
| Cc1csc(NC(=O)c2sc3nc(-c4cccs4)ccc3c2N)n1 [Compound 55, 3-Amino-6-thiophen-2-yl-thieno[2,3-b]pyridine-2-carboxylic acid (4-methyl-thiazol-2-yl)amide] | – | – | – | – | EC50 [1, 6]: < 5 µM |
| Nc1c(C(=O)Nc2ccccc2OC(F)(F)F)sc2nc3c(cc12)CCCCC3 [Compound 371, 3-amino-N-(2-(trifluoromethoxy)phenyl)-6,7,8,9-tetrahydro-5H-cyclohepta[b]thieno [3,2-e]pyridine-2-carboxamide] | – | – | < 5 | – | – |
| COc1cccc(-c2ccc3c(N)c(C(=O)Nc4cc(OC)c(OC)c(OC)c4)sc3n2)c1 [Compound 520, 3-amino-6-(3-methoxyphenyl)-N-(3,4,5-trimethoxyphenyl)thieno[2,3-b]pyridine-2-carboxamide] | – | – | < 5 | – | – |
| N#Cc1c(N)nc2sc(C(=O)Nc3nc(-c4ccccc4)cs3)c(N)c2c1-c1ccco1 [Compound 383, 3,6-diamino-5-cyano-4-(2-furyl)-N-(4-phenylthiazol-2-yl)thieno[2,3-b]pyridine-2-carboxamide] | – | – | < 5 | – | – |
| C=CCc1c(C)nc2sc(C(=O)Nc3ccc(Br)cc3)c(N)c2c1C [Compound 216, 5-Allyl-3-amino-4,6-dimethyl-thieno[2,3-b]pyridine-2-carboxylic acid (4-bromo-phenyl)-amide] | – | – | – | – | EC50 [1, 5]: > 25 µM |
| N-(1-adamantyl)-3-amino-6-(2-thienyl) thieno[2,3-b]pyridine-2-carboxamide [Compound 426] | – | – | – | – | EC50 ([1]; viral yield assay, Vero cells, MOI 0.1, 48 hours post infection, read-out: Activity (EC50 in μM) DENV-2): < 5 µM |
| COc1ccc(-c2cc(C3CC3)nc3sc(C(N)=O)c(N)c23)cc1 [Compound 7, 3-Amino-6-cyclopropyl-4-(4-methoxy-phenyl)-thieno[2,3-b]pyridine-2-carboxylic acid amide] | – | – | – | – | EC50 [1, 5]: < 5 µM |
